Key:
[1] = design: species or system human; details: in vivo, 1.5 mg/kg
Description: In accordance with the present invention, the solid food to be checked and swallowed as the meal for a gastric emptying test is in the form of an edible, egg fortified muffin from a microwaveable recipe, freshly prepared prior to use. The base formulation consists of a bulk mix containing 92 grams of powdered, defatted milk; 320 grams of apple flavored instant muffin mix, 80 grams of finely grated Parmesan cheese and 0.6 gram of pulverized L-2-oxo[^13C]thiazolidine-4-carboxylic acid (OTZ) tracer probe. The mixture is homogenized in a food mill and stored in individual portions of 61.625 grams. Prior to cooking, the individual muffin mix is reconstituted in a microwaveable plastic dish with 110 ml of water and 61 grams of defatted egg substitute and then thoroughly blended and allowed to stand covered for 0.5 hour at room temperature. After shaking well, the mixture is uncovered and microwaved in a 500 watt oven for 4 minutes at medium power, rotated 120 degrees, and again microwaved for 4 minutes. The muffin is loosened around the edges, allowed to cool, and removed from the cooking container. […]
The samples are analyzed for isotopic content and corrected for interindividual differences in endogenous CO2 production rate in order to obtain the appropriate data points. […]

gastric emptying = assay: Breath test with liquid test meal given with drugs known to accelerate or delay gastric emptying (FIG. 6); format: in vivo, human; details: [acyl]^13C-leucine as emptying probe
Description: In FIG. 6 summarizing this experiment, metoclopramide is shown as a prokinetic agent. Similarly, loperamide is shown to delay emptying.

| Structure (SMILES) | Absorption kinetics from appearance pattern of ^13CO2 in breath [1] | T1/2 (half-emptying time) [1] | Effect on gastric emptying (gastric emptying) |
| --- | --- | --- | --- |
| O=C(O)[C@@H]1CS[13C](=O)N1 [2-[^13C -OTZ, L-2-oxo[^13C]thiazolidine-4-carboxylic acid] | zero-order absorption kinetics | 19 +/− 4 |  |
| CCN(CC)CCNC(=O)c1cc(Cl)c(N)cc1OC [Metoclopramide, metoclopramide] |  |  | accelarated the gastric emptying profile in a statistically significant manner |
| CN(C)C(=O)C(CCN1CCC(O)(c2ccc(Cl)cc2)CC1)(c1ccccc1)c1ccccc1 [loperamide] |  |  | emptying times trending toward greater than normal half-emptying values |
